In patent publication US6008196A, “Perfluoroalkyl ketone inhibitors of elastase and processes for making the same” (Hoechst Marion Roussel, Inc., priority 1996, dated 1999) one finds Ki data, which are given here for 3 compounds.

In general, Ki refers to a measure of affinity in units of concentration, obtained from inhibition or displacement.

The assay concerns the target T1, Human Neutrophil Elastase (Homo sapiens, UniProt P08246).
T1 construct: Enzyme is purified from human sputum, although recently it has become commercially available; from tissue; host or cells: human sputum
T1 sequence (P08246 30-247 limits assumed): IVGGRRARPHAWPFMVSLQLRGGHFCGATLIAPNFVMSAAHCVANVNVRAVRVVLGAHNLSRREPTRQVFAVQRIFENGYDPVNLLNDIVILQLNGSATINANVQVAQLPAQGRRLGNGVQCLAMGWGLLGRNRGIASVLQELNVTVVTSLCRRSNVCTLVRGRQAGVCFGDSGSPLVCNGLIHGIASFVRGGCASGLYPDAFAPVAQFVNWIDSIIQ
As to the kind of experiment: Human neutrophil elastase assayed in vitro with N-MeOSuc-Ala-Ala-Pro-Val-p-nitroanilide as substrate. The class given is biochemical. The following applies: enzyme purified from human sputum. How it is done: Human neutrophil elastase is assayed in vitro using N-MeOSuc-Ala-Ala-Pro-Val-p-nitroanilide, available commercially, as substrate. […] Enzyme is purified from human sputum, although recently it has become commercially available. Kinetic characterization of immediate inhibitors is by means of the Dixon plot, whereas the characterization of slow- and/or tight-binding inhibitors used data analysis techniques reviewed by Williams and Morrison. The synthesis and analytical use of a highly sensitive and convenient substrate of elastase is described in J. Bieth, B. Spiess and C. […] For the purposes of this table, MCBz refers to 4-(4-morpholinylcarbonyl)benzoyl and Pyr refers to 3-(3-pyridyl)propanoyl.
`CC(C)C(NC(=O)[C@@H]1CCCN1C(=O)[C@@H](NC(=O)OC(C)(C)C)C(C)C)C(=O)C(F)(F)C(F)(F)C(F)(F)C(F)(F)F` (stereo partly drawn) [Boc--Val--Pro--Val--CF2 CF2 CF2 CF3, N-[(1,1-dimethylethoxy)carbonyl]-L-valyl-N'-[3,3,4,4,5,5,6,6,6-nonafluoro-1-(1-methylethyl)-2-oxohexyl]-L-prolinamide] returned an inhibitory constant (Ki) of 590 nM.

The compound `CC(C)C(NC(=O)[C@@H]1CCCN1C(=O)[C@@H](NC(=O)OC(C)(C)C)C(C)C)C(=O)C(F)(F)C(F)(F)C(F)(F)F` (stereo partly drawn) [Boc--Val--Pro--Val--CF2 CF2 CF3, N-[(1,1-dimethylethoxy)carbonyl]-L-valyl-N'-[3,3,4,4,5,5,5-heptafluoro-1-(1-methylethyl)-2-oxopentyl]-L-prolinamide] returned a Ki of 490 nM.

As to `CC(C)C(NC(=O)[C@@H]1CCCN1C(=O)[C@@H](NC(=O)c1ccc(C(=O)N2CCOCC2)cc1)C(C)C)C(=O)C(F)(F)C(F)(F)C(F)(F)F` (stereo partly drawn) [MCBz--Val--Pro--Val--CF2 CF2 CF3, N-[4-(4-morpholinylcarbonyl)benzoyl]-L-valyl-N'-[3,3,4,4,5,5,5-heptafluoro-1-(1-methylethyl)-2-oxopentyl]-L-prolinamide], the Ki worked out at 18 nM.
